# Test results reported in patent US11111235B2 (Denali Therapeutics Inc., priority 2016, dated 2021).
# Key:
# [1] = molecular target: LRRK2 G2019S (Homo sapiens (Human), UniProt Q5S007, G2019S); experiment: LRRK2 G2019S TR-FRET biochemical assay (LRRKtide substrate); settings: 134 μM ATP
# Description: Materials: • LRRK2 G2019S enzyme • Substrate (LRRKtide) • ATP • TR-FRET dilution buffer • pLRRKtide antibody • 384-well assay plate • DMSO
# Enzyme Reaction Conditions • 50 mM Tris pH 7.5, 10 mM MgCl2, 1 mM EGTA, 0.01% Brij-35.2 mM DTT • 5 nM LRRK2 • 134 μM ATP • 60 minute reaction time • 23° C. reaction temperature • 10 μL total reaction volume
# Detection Reaction Conditions • 1× TR-FRET dilution buffer • 10 mM EDTA • 2 nM antibody • 23° C. reaction temperature • 10 μL total reaction volume
# Compounds were prepared by initially diluting to 1 mM with DMSO. 35 μL of reference compound solution, 35 μL of test compound solution, and 35 μL HPE were successively added to the source plate (384-well assay plate, Labcyte). The plates were centrifuged at 2500 rpm for 1 minute and sealed in foil. POD was used to perform a 3.162 fold serial dilution and 100 nL of reference compound solution, test compound solution, HPE and ZPE were transferred to assay plates. The assay plate was centrifuged at 2500 rpm for 1 minute, and sealed with foil.
# To perform the enzyme reaction, 5 μL of LRRKtide substrate and kinase mixture in assay buffer was added to all wells of the assay plate. The plate was centrifuged to concentrate the mixture at the bottom of the wells. The assay plate was incubated at 23° C. for 20 minutes. Following incubation, 5 μL of 2×ATP in assay buffer was added to each well, and plates were centrifuged to concentrate the mixture at the bottom of the wells. The plate was incubated at 23° C. for 60 minutes.
# To perform the detection of the reaction, EDTA completely mixed in TR-FRET dilution buffer was added to antibody reagent. 10 μL of detection reagent was added to all wells of each well of the assay plate and the plate was centrifuged to concentrate the mixture at the bottom of the wells. The plate was then incubated at 23° C. for 60 minutes. Plates were read on Perkin Elmer Envision 2104 instrument in TR-FRET mode using 340 nm excitation filter, 520 nm fluorescence emission filter, and 490 or 495 nm terbium emission filter.
# [2] = Metabolic stability in human liver microsomes; format: in vitro ADME; settings: projected human hepatic clearance scaled from microsomal Clint, well-stirred model
# Description: Metabolic stability of compounds was evaluated in human liver microsomes (from Corning or XenoTech, LLC) using a 96-well plate assay format. Compounds were incubated at 37° C. at […] final concentration in the microsomal matrix (0.5 mg/mL total protein) in the presence or absence of NADPH cofactor. An NADPH regenerating system, comprised of NADP, MgCl2, isocitric acid, and isocitrate dehydrogenase, was used in the assay. Enzymatic reactions were conducted for 0, 5, 10, 20, 30, or 60 min before termination by addition of acetonitrile containing tolbutamide and labetalol internal standards (100 ng/mL). After shaking for 10 min, plates were subjected to centrifugation (4000 rpm at 4° C.) for 20 min and supernatants were mixed 1:3 with HPLC grade water. Samples were analyzed by LC-MS/MS using appropriate MRM transitions for each analyte and internal standard (IS). Analyte/IS peak area ratios were used to determine percent compound remaining at each time point. Intrinsic clearance (Clint; expressed as mL·min^−1·mg^−1) was calculated from the first order elimination constant (k, min^−1) of test article decay and the volume of the incubation. These values were scaled to intrinsic organ clearance (Clint) using human specific scaling factors (48.8 mg microsomal protein per g liver; 25.7 g liver per kg body weight). Organ Clint was subsequently converted to hepatic clearance (CLhep, mL·min-1·kg-1) using the well-stirred model of hepatic elimination, where Qh is human hepatic blood flow (20.7 mL·min-1·kg-1).
# CLhep is the projected human clearance in the liver based on the above in vitro assay. A lower value is indicative of less compound being removed by the liver.
# Sequence of LRRK2 G2019S (Q5S007 whole entry G2019S): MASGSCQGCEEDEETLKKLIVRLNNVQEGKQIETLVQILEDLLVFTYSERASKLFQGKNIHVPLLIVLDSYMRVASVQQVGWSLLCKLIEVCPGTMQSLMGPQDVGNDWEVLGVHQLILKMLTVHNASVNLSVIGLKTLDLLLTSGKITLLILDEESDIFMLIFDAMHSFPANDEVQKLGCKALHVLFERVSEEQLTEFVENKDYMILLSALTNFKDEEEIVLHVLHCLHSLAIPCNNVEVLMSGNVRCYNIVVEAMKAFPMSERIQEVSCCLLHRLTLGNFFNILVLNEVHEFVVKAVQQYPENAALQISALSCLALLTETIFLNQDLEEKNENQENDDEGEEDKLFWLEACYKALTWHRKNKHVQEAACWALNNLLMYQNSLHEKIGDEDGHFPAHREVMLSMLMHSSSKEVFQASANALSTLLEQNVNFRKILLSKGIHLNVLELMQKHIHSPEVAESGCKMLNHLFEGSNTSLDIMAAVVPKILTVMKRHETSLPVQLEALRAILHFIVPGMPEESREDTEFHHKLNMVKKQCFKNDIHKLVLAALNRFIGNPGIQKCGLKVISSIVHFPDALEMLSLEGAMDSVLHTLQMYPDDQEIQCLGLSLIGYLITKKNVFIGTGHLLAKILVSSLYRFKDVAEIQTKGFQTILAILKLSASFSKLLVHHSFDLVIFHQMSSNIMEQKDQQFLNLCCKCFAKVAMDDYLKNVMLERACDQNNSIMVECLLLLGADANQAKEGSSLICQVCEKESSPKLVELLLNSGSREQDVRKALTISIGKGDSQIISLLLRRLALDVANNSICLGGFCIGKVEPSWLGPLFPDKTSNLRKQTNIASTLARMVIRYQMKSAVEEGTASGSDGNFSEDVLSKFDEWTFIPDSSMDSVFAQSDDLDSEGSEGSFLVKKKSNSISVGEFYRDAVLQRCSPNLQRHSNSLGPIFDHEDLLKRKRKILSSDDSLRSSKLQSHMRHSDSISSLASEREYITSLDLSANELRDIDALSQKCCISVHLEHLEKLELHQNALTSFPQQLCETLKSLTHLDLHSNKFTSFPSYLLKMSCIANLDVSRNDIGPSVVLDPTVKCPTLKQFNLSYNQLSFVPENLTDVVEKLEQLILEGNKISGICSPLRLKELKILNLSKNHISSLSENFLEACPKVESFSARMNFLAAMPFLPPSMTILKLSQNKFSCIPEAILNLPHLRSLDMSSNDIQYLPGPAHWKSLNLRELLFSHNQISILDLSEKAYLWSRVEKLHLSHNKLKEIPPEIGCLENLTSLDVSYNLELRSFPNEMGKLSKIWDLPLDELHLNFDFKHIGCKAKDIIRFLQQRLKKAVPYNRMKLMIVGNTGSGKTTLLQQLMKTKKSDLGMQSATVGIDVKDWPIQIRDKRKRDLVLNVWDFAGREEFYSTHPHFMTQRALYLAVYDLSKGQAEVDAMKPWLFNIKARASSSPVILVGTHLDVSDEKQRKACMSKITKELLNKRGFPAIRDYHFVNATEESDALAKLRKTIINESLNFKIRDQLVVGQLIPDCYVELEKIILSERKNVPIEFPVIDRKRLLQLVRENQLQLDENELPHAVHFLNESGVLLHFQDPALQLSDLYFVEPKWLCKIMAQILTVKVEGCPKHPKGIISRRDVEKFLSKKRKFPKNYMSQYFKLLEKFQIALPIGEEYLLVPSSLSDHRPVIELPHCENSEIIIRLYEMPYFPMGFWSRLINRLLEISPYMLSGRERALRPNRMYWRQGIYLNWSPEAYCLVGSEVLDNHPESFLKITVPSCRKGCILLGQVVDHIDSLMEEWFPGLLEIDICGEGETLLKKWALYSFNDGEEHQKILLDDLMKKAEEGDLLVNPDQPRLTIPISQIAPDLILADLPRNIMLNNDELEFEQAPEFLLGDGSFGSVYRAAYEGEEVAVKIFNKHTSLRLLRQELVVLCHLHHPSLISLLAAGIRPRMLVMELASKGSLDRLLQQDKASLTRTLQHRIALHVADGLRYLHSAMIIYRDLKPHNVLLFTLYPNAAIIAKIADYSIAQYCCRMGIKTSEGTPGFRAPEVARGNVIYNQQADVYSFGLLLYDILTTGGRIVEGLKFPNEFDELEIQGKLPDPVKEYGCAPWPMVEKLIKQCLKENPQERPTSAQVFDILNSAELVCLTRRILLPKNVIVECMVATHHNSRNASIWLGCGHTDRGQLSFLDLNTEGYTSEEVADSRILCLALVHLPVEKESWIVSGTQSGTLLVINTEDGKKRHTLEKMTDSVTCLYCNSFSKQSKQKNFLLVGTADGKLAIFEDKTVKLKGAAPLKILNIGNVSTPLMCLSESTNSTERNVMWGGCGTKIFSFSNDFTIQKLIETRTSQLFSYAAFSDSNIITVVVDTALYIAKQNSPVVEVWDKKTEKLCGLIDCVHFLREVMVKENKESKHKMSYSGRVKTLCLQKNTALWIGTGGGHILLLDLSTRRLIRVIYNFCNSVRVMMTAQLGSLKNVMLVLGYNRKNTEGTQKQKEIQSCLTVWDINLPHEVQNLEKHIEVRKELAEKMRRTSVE
SMILES,IC50 ([1]; class symbols) [µM],Human liver microsomes CLhep [2] [mL/min/kg],IC50 [1] [µM]
"CCNc1nc(Nc2cn(C3C[C@@H]3C#N)nc2Cl)ncc1C(F)(F)F (single isomer, unassigned) [Compound 206]",< 0.03,,
"CCNc1nc(Nc2cn(C3C[C@H]3C#N)nc2Cl)ncc1C(F)(F)F (single isomer, unassigned) [Compound 207]",< 0.03,,
"CNc1nc(Nc2cn(C3C[C@@H]3C#N)nc2C2CC2)ncc1C(F)(F)F (single isomer, unassigned) [Compound 208]",< 0.03,,
"CNc1nc(Nc2cn(C3C[C@H]3C#N)nc2C2CC2)ncc1C(F)(F)F (single isomer, unassigned) [Compound 209]",< 0.03,,
"N#C[C@@H]1CC1n1cc(Nc2ncc(C(F)(F)F)c(NCC(F)F)n2)c(C2CC2)n1 (single isomer, unassigned) [Compound 210]",< 0.03,,
"CCNc1nc(Nc2cn(C3C[C@@H]3C#N)nc2C2CC2)ncc1Br (single isomer, unassigned) [Compound 214]",< 0.03,,
"CCNc1nc(Nc2cn(C3C[C@H]3C#N)nc2C2CC2)ncc1Br (single isomer, unassigned) [Compound 215]",< 0.03,,
CNc1nc(Nc2cnn(C3CN(C4COC4)CCC3(F)F)c2Cl)ncc1C(F)(F)F (centres unmarked) [Compound 28],< 0.03,,
CNc1nc(Nc2cnn(C3CCCC3(C)O)c2C)ncc1C(F)(F)F (centres unmarked) [Compound 30],0.03 to 0.06,,
"[2H]C([2H])([2H])n1nc(C(C)(C)n2nccn2)cc1Nc1ncc(C(F)(F)F)c(NCC)n1 [Compound 34, N4-ethyl-N2-[1-(^2H3)methyl-3-[2-(2H-1,2,3-triazol-2-yl)propan-2-yl]-1H-pyrazol-5-yl]-5-(trifluoromethyl)pyrimidine-2,4-diamine]",,0.75,
CCNc1nc(Nc2cnn3c2CC(C#N)C3)ncc1C(F)(F)F (centres unmarked) [Compound 52A],< 0.03,,
CCNc1nc(Nc2cnn3c2CC(n2nccn2)C3)ncc1C(F)(F)F (centres unmarked) [Compound 54A],< 0.03,,
COc1nc(Nc2cn(C3(C)CCNC3=O)nc2C)ncc1Br (centres unmarked) [Compound 64A],< 0.03,,
CNc1nc(Nc2cn(C3(C)CCOC3=O)nc2Cl)ncc1C(F)(F)F (centres unmarked) [Compound 99],< 0.03,,
CCNc1nc(Nc2cn(C3(C)CCOC3=O)nc2C)ncc1C(F)(F)F (centres unmarked) [Compound 100],< 0.03,,
COc1nc(Nc2cn(C3(C)CCOC3=O)nc2C)ncc1Br (centres unmarked) [Compound 102],< 0.03,,
Cc1nn(C2(C)CCOC2=O)cc1Nc1ncc(C(F)(F)F)c(C2CC2)n1 (centres unmarked) [Compound 103],< 0.03,,
CCNc1nc(Nc2cn(C3(C)CCOC3=O)nc2C2CC2)ncc1C(F)(F)F (centres unmarked) [Compound 104],,11.59,0.00096
CCNc1nc(Nc2cn(C3(C)CCOC3=O)nc2C2CC2)ncc1Br (centres unmarked) [Compound 114],< 0.03,16.508,0.00105
CCNc1nc(Nc2cnn(C3CCCN(CC(F)F)C3)c2C)ncc1C(F)(F)F (centres unmarked) [Compound 116],< 0.03,,
CCNc1nc(Nc2cn(C3(C)CCOC3=O)nc2Cl)ncc1C(F)(F)F (centres unmarked) [Compound 117],< 0.03,,
CNc1nc(Nc2cn(C3(C)CCOC3=O)nc2C)ncc1C(F)(F)F (centres unmarked) [Compound 119],< 0.03,,
CCNc1nc(Nc2cc(C3(C)CCOC3=O)nn2C2CC2)ncc1Br (centres unmarked) [Compound 150],,11.077,0.00122
CNc1nc(Nc2cc(C3(C)CCOC3=O)nn2C2CC2)ncc1C(F)(F)F (centres unmarked) [Compound 155],,5.519,0.00195
CCNc1nc(Nc2cc(C3(C)CCn4ncnc43)nn2C2CC2)ncc1C(F)(F)F (centres unmarked) [Compound 172],< 0.03,19.9,0.00147
CCNc1nc(Nc2cnn(C3CNCCC3(F)F)c2C)ncc1C(F)(F)F (centres unmarked) [Compound 200],< 0.03,,
CCN1CCC(F)(F)C(n2ncc(Nc3ncc(C(F)(F)F)c(NC)n3)c2Cl)C1 (centres unmarked) [Compound 202],< 0.03,,
CNc1nc(Nc2cn(C(C)(C)c3ncn(C)n3)nc2C)ncc1C(F)(F)F [Compound 218],,0,
